Laboratory results reported in PubChem BioAssay AID2060344 (Molecular Pharmacology Branch, DTP, NCI, 2025).
Values joined by “and” are separate entries in the source; they are usually repeats but may differ in a detail not shown here. Equal entries are not always repeated. Each block holds one molecule with its values, some of them ahead of it.

Test system: SK-MEL-2 multi-cell spheroids, viability
Assay: Anticancer human tumor SK-MEL-2 cell line growth inhibition [TAK];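 further: spheroids exposed to drugs for seven days before readout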;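 on viability, T/C: percent of DMSO vehicle control luminescence so 100% = untreated viability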
Conditions: for viability, T/C: stronger effect = lower value
Text: Combinatorial screen of targeted agents with TAK-243 and ipatasertib in multi-cell type tumor spheroids
A high-throughput screen of multi-cell type tumor spheroids was designed to identify active combinations of targeted small molecules and TAK-243 or ipatasertib. Complex spheroids include a stromal component modeled by human endothelial cells (HUVEC) and fibroblasts modeled by human mesenchymal stem cells (MSCs). The concentration ranges selected for each drug and investigational agent were based upon clinically achievable concentrations if the clinical Cmax of the agent was known.
Compounds. The drugs and investigational agents: TAK-243 (785004), ipatasertib (767898), everolimus (733504), selumetinib (741078), bortezomib (756655), trametinib (758246), ixazomib (758254), vemurafenib (761431), dabrafenib (764134), sapanisertib (764658), alpelisib (765974), and copanlisib (816437), were obtained from the National Cancer Institute (NCI) Developmental Therapeutics Program Chemical Repository. The FDA-approved anticancer drug set is available from the NCI Developmental Therapeutics Program. […] The stock solutions were prepared in dimethyl sulfoxide (DMSO, Sigma-Aldrich, St. Louis, MO, cat. D2650) at 800-fold the tested concentration and stored at -70 degrees C prior to their use. All drugs and investigational agents were tested over a range starting from a high concentration at or near the clinical Cmax and decreasing in half-log increments. If the clinical Cmax for an agent had not been determined, the highest concentration tested was 10 microM.
NCI60 Cell Culture. NCI60 cell lines were obtained from the NCI Developmental Therapeutics Program Tumor Repository. For each lot of cells, the Repository performed Applied Biosystems AmpFLSTR Identifiler testing with PCR amplification to confirm consistency with the published Identifier STR profile for each cell line. Cells were kept in continuous culture for no more than 20 passages. The optimal seeding densities for each of the cell lines at each time point assessed were determined prior to performing the concentration response studies. Briefly, the NCI60 human tumor lines were grown as monolayers in RPMI 1640 medium supplemented with 10% FBS and 2 mmol/L L-glutamine.
An additional 2 lines were from the NCI60 cell line panel including melanomas, MALME-3M and SK-MEL-2. Pooled donor human umbilical vein endothelial cells (HUVEC, Lonza, cat. CC-2519) and human mesenchymal stem cells (hMSC, Lonza, cat. PT-2501) were purchased from Lonza (Walkersville, MD).
PDMR cell lines were grown in complete medium (DC medium): Dulbecco's modified Eagle's medium (DMEM)/F12 supplemented with 5% fetal bovine serum (FBS), 2 mM L-glutamine, 100 U/mL penicillin and 100 µg/ml streptomycin, 0.4 µg/ml hydrocortisone, 10 ng/ml epidermal growth factor (EGF) recombinant human protein, 24 µg/mL adenine, and 0.1 mg/mL primocin. During culture from frozen stock vials, PDMR cells were cultured in the same medium containing 10 µM Y-27632 (see Table 3). The PDCs were cultured in complete DMEM/F12 media without 10 microM Y-27632 dihydrochloride for at least two passages prior to the screen. The pooled donor HUVEC and hMSC were cultured in endothelial cell growth medium 2 (PromoCell, Heidelberg, Germany, cat. C-22011) and mesenchymal stem cell growth medium 2 (PromoCell, cat. C-28009), respectively. For all experiments, HUVEC and hMSC were used at passages </=5.
For the pre-screen, cell seeding densities were determined from a titration spanning the range from 5,000 to 313 cells per well. The mct-spheroids including 60% malignant cells, 25% HUVEC and 15% MSC dispensed as a mixture into U-bottom Ultra-Low Attachment 384-well plates (Corning, NY)
High-throughput Drug Combination Screening.
Prior to their inoculation into 384-well plates, malignant cells, HUVEC, and hMSC were removed from T flasks using TrypLE express (Thermo Fisher Scientific, cat. 12605036) and harvested by centrifugation for 5 min at 233 x g. […]

IC50 (curve of compound): 41 nM and 41.1 nM
Structure (SMILES): CC(C)n1nc(-c2ccc3oc(N)nc3c2)c2c(N)ncnc21
viability, T/C (compound 0.000316 µM): 109% and 105% | viability, T/C (compound 0.001 µM): 99.8% and 100% | viability, T/C (compound 0.00316 µM): 88.6% and 89.8% | viability, T/C (compound 0.01 µM): 86.9% and 76% | viability, T/C (compound 0.0316 µM): 52.2% and 55.5% | viability, T/C (compound 0.1 µM): 29.2% and 31.2%

IC50 (curve of compound): 63.9 nM and 61.4 nM
Structure (SMILES): COc1c(OCCCN2CCOCC2)ccc2c3n(c(=NC(=O)c4cnc(N)nc4)nc12)CCN3
viability, T/C (compound 0.00316 µM): 93.1% and 92.3% | viability, T/C (compound 0.01 µM): 71.8% and 74% | viability, T/C (compound 0.0316 µM): 60.8% and 56.7% | viability, T/C (compound 0.1 µM): 44.8% and 46.6% | viability, T/C (compound 0.316 µM): 31.1% and 30.9% | viability, T/C (compound 1 µM): 20.5% and 23.6%

IC50 (compound alone, run of 02/20/2020): > 30000 nM
Structure (SMILES): CC(C)NCC(C(=O)N1CCN(c2ncnc3c2C(C)CC3O)CC1)c1ccc(Cl)cc1 (centres undefined)

IC50 (curve of compound): < 9.49 nM
Structure (SMILES): Cn1cnc2c(F)c(Nc3ccc(Br)cc3Cl)c(C(=O)NOCCO)cc21
viability, T/C (compound 0.00949 µM): 46.8% and 40.8% | viability, T/C (compound 0.03 µM): 34.6% and 17.4% | viability, T/C (compound 0.0949 µM): 19.7% and 9.79% | viability, T/C (compound 0.3 µM): 21.9% and 7.35% | viability, T/C (compound 0.949 µM): 14.6% and 5.25% | viability, T/C (compound 3 µM): 14.1% and 2.56%

IC50 (curve of compound): 0.242 nM and 0.22 nM
Structure (SMILES): CC(=O)Nc1cccc(-n2c(=O)n(C3CC3)c(=O)c3c(Nc4ccc(I)cc4F)n(C)c(=O)c(C)c32)c1
viability, T/C (compound 94.9 pM): 91% and 88.6% | viability, T/C (compound 0.0003 µM): 40.3% and 35.3% | viability, T/C (compound 0.000949 µM): 17.9% and 15.7% | viability, T/C (compound 0.003 µM): 6.38% and 5.17% | viability, T/C (compound 0.00949 µM): 3.87% and 4.14% | viability, T/C (compound 0.03 µM): 2.42% and 3.1%

Structure (SMILES): CC(C)n1nc(-c2ccc3oc(N)nc3c2)c2c(N)ncnc21 + CC(C)NCC(C(=O)N1CCN(c2ncnc3c2C(C)CC3O)CC1)c1ccc(Cl)cc1
IC50 (curve of first compound, second compound 0.3 µM): 29.5 nM | IC50 (curve of first compound, second compound 0.949 µM): 10.7 nM | IC50 (curve of first compound, second compound 3 µM): 3.22 nM | IC50 (curve of first compound, second compound 9.49 µM): 1.31 nM | IC50 (curve of first compound, second compound 30 µM): 0.858 nM | viability, T/C (second compound 0.3 µM, first compound 0.000316 µM): 98.6% | viability, T/C (second compound 0.3 µM, first compound 0.001 µM): 92.4% | viability, T/C (second compound 0.3 µM, first compound 0.00316 µM): 82.1% | viability, T/C (second compound 0.3 µM, first compound 0.01 µM): 76.8% | viability, T/C (second compound 0.3 µM, first compound 0.0316 µM): 45.8% | viability, T/C (second compound 0.3 µM, first compound 0.1 µM): 25.5% | viability, T/C (second compound 0.949 µM, first compound 0.000316 µM): 85.6% | viability, T/C (second compound 0.949 µM, first compound 0.001 µM): 82% | viability, T/C (second compound 0.949 µM, first compound 0.00316 µM): 58.7% | viability, T/C (second compound 0.949 µM, first compound 0.01 µM): 55.6% | viability, T/C (second compound 0.949 µM, first compound 0.0316 µM): 33.4% | viability, T/C (second compound 0.949 µM, first compound 0.1 µM): 19% | viability, T/C (second compound 3 µM, first compound 0.000316 µM): 66% | viability, T/C (second compound 3 µM, first compound 0.001 µM): 62.3% | viability, T/C (second compound 3 µM, first compound 0.00316 µM): 48.5% | viability, T/C (second compound 3 µM, first compound 0.01 µM): 37.8% | viability, T/C (second compound 3 µM, first compound 0.0316 µM): 27.2% | viability, T/C (second compound 3 µM, first compound 0.1 µM): 12.5% | viability, T/C (second compound 9.49 µM, first compound 0.000316 µM): 56.3% | viability, T/C (second compound 9.49 µM, first compound 0.001 µM): 54.4% | viability, T/C (second compound 9.49 µM, first compound 0.00316 µM): 42.2% | viability, T/C (second compound 9.49 µM, first compound 0.01 µM): 34.7% | viability, T/C (second compound 9.49 µM, first compound 0.0316 µM): 25.1% | viability, T/C (second compound 9.49 µM, first compound 0.1 µM): 13.6% | viability, T/C (second compound 30 µM, first compound 0.000316 µM): 52.6% | viability, T/C (second compound 30 µM, first compound 0.001 µM): 51.4% | viability, T/C (second compound 30 µM, first compound 0.00316 µM): 41.2% | viability, T/C (second compound 30 µM, first compound 0.01 µM): 32.9% | viability, T/C (second compound 30 µM, first compound 0.0316 µM): 20.7% | viability, T/C (second compound 30 µM, first compound 0.1 µM): 9.08%
